{"source": "patent US20260232644A1", "about": "“Compositions Comprising an Inhibitor of Galectin-3” (University of Liverpool, priority 2023, published 2026)", "key": {"[1]": {"target": "T1, C-terminal (aa 115-250) Galectin-3 (Homo sapiens, UniProt P17931)", "T1 construct": "made in house; host or cells: E. coli", "T1 sequence (P17931 115-250)": "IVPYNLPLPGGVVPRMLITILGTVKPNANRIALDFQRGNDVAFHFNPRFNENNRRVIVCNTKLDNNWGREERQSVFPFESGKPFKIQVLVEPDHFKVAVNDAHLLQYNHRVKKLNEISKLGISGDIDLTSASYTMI", "assay": "Tryptophan Fluorescence Spectroscopy (TFS) binding affinity, C-terminal Galectin-3", "experimental": "(§1) The binding affinity of the inhibitors to galectin-3 was determined by Intrinsic Tryptophan Fluorescence Spectroscopy (TFS) exactly as we described recently [Sindrewicz, P., et al., Intrinsic tryptophan fluorescence spectroscopy reliably determines galectin-ligand interactions. Sci Rep, 2019. 9(1): p. 11851]. The Galectin-3 concentration used was 10 μM and the inhibitor titration concentrations were from 0 to 224 μM. DMSO/control buffer (PBS with 2 mM EDTA) titrations were performed and used for background subtraction."}, "[2]": {"test_system": "triple-negative breast cancer MDA-MB-231 cells", "assay": "Triple-negative breast cancer cell adhesion to basement matrix", "assay_type": "cell-based, human", "conditions": "Homo sapiens, MDA-MB-231", "experimental": "Nanty-six well plates were coated with 50 μl Matrigel (1:30 diluted in PBS) at 37° C. for 1 hour.\nCancer cells, pre-labelled with fluorescent die DiI at 37° C. for 20 minutes, were washed twice with PBS and resuspended into 3×10^4 cells/ml in serum-free medium. The matrix-coated 96-well plates were washed twice with PBS before introduction of 100μ cell suspension with different concentrations of the inhibitors or PBS/DMSO (control) for 1 hour at 37° C. The plates were washed twice with PBS before three randomly selected Field of Views (FOVs) were recorded by fluorescence microscope and number of adhesion cells were quantified by Image J.\nMDAMB-231 or PANC-1 cells were seeded into 6-well plate (2×10^5 cells) and cultured at 37° C. for 24 hour. Galectin-3 CRISPR Cas9 Knockout plasmid (2 μg) and galectin-3 HDR plasmid (2 μg) was mixed with Plasmid Transfection Medium (21 μl) for 5 minutes before addition to a mixture of lipofectamine STEM Transfection Reagent (STEM00001) (1 μl) and Plasmid Transfection Medium (25 μl) for 10 minutes at room temperature. The cells in the 6-well plates were washed and introduced with the Plasmid DNA/Lipofectamine STEM Transfection Reagent complex at 37° C. for 24 hour. The culture medium was replaced with fresh antibiotics-free medium for further 24 hour before introduction of 10 μg/mL puromycin-containing medium every three days. Successful co-transfection of the CRISPR/Cas9 KO Plasmid and HDR Plasmid was confirmed by expression of red fluorescence protein of the cells. Galectin-3 knockout in the cells was further confirmed by immunoblotting."}, "full-length galectin-3": {"target": "T2, full-length galectin-3 (Homo sapiens, UniProt P17931)", "T2 construct": "made in house; host or cells: E. coli", "T2 sequence (P17931 whole entry)": "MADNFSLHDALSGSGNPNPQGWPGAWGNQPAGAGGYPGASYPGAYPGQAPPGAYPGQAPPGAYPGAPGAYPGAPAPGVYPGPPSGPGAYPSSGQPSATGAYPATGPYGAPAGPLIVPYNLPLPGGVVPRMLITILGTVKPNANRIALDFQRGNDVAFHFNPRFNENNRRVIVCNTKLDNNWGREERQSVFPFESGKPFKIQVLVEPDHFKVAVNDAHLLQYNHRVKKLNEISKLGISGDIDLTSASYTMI", "assay": "Tryptophan Fluorescence Spectroscopy (TFS) binding affinity, full-length Galectin-3", "experimental": "as §1"}, "Galectin-8": {"target": "T3, Galectin-8 (Homo sapiens, UniProt O00214)", "T3 construct": "purchased R&D Systems (Abingdon, UK)", "T3 sequence (O00214 1-317)": "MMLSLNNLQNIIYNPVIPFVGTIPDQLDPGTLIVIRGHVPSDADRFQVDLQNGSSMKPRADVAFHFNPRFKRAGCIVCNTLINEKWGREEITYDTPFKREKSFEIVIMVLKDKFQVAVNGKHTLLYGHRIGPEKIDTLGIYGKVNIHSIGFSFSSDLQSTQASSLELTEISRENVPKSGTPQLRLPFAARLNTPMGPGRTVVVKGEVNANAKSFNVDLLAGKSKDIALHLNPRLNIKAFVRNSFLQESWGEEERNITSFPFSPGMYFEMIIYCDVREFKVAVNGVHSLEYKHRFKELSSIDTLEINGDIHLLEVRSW", "assay": "Galectin-8 binding to asialofetuin ELISA", "conditions": "Gal-8 5 μg/ml, ASF 20 μg/ml", "experimental": "(§2) Effect of the inhibitors on galectin binding to its ligand asialo fetuin (ASF) was measured by galectin ELISA. Nanty-six well plates were coated overnight with 20 μg/ml ASF in coating buffer (15 mM Na2CO3 17 mM NaHCO3 pH 9.6.). The wells were washed twice with PBS and incubated with blocking buffer (1% BSA in PBS) for 1 hr. The supernatants were removed and replaced with 5 μg/ml recombinant human galectin without or with different concentrations of the compound inhibitors or lactose in blocking buffer for 1 hr at room temperature. The wells were washed and incubated with 1 μg/ml anti-galectin antibody for 2 hr. Following addition of HRP-conjugated secondary antibody for 1 hr, FAST OPD development solution was added for 15-20 minutes. The reaction was terminated by addition of 4M sulphuric acid. The plates were read at 492 nm (reference wavelength 595 nm) by a microplate reader."}, "[3]": {"test_system": "human melanoma ACA19 cells", "assay": "Galectin-3-mediated ACA19 cell adhesion to HUVECs", "assay_type": "cell-based", "conditions": "Galectin-3 2 μg/ml, various concentrations", "experimental": "HUVEC cells at 1×10^5 cells/ml in EGM medium were seeded into 24 well plates pre-inserted with 13 mm glass coverslip. The cells were incubated at 37° C. at 5% CO2 for 24 hr for monolayer formation. AGA19+ or SW620 cell suspension (5×10^5 cells/ml in DMEM) was introduced with 5 μl/ml fluorescent cell labelling solution DiL for 30 min at 37° C. The fluorescent labelled cells were washed twice with PBS and resuspended into 1×10^5 cells/ml in DMEM. The cancer cell suspension was then introduced with galectin-3 (2 μg/ml) and various concentrations of the compound inhibitors at 37° C. for 1 hr. The wells were carefully washed twice with PBS to remove the non-adhesion cells before the cells in the wells were fixed with 2% paraformaldehyde for 10 min. The glass coverslip was carefully removed from the plate, placed on a glass slide. After addition of fluorescence mounting medium containing DAPI, fluorescence labelled cells were quantified under a fluorescence microscope."}, "yeast": {"test_system": "yeast", "assay": "Genotoxicity in yeast"}, "[4]": {"test_system": "human colon cancer SW620 cells", "assay": "LDH release cytotoxicity assay, SW620", "assay_type": "cell-based", "method": "SW620 cells (5×10^4 cells/ml) were seeded into 96-well plate in DMEM (and incubated at 37° C. 5% CO2 for 24 hr. HUVECs (1.0×10^5 cells/ml) was seeded in EBM medium and incubated for 24-36 hr until they formed a monolayer. Compound inhibitors at different concentrations were then introduced to the cells (10× lysis buffer was included as maximum LDH activity control) for 24 hr. The culture medium was transferred to a new plate and was mixed with equal volume of reaction mixture provided in the kit for 30 min at room temperature before the absorbance was measured at 490 nm (reference 680 nm) by a spectrophotometer."}, "Galectin-4": {"target": "T4, Galectin-4 (Homo sapiens, UniProt P56470)", "T4 construct": "made in house; host or cells: E. coli", "T4 sequence (P56470 1-323)": "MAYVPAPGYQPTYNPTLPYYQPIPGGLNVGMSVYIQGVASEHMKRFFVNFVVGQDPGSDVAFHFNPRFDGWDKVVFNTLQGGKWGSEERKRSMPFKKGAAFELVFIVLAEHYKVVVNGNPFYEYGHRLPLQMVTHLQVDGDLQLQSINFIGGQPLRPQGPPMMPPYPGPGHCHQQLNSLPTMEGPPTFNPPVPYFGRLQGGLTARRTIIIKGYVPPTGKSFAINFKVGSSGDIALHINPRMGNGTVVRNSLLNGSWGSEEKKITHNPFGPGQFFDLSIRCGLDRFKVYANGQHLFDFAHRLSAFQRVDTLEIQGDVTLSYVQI", "assay": "Galectin-4 binding to asialofetuin ELISA", "conditions": "Gal-4 5 μg/ml, ASF 20 μg/ml", "experimental": "as §2"}}, "note": "pIC50, pKd: −log10 of the molar value. Counter-ions that a name gives are not always drawn.", "data": [{"molecule": "NC1CCN(c2nc3c(cc2F)c(=O)c(C(=O)O)cn3-c2ccc(F)cc2F)C1", "note": "(stereo not drawn) [Formula X, Tosufloxacin tosylate]", "values": [{"measurement": "pKd", "setting": "[1]", "value": "5.15 to 5.30"}, {"measurement": "pIC50", "setting": "[2]", "value": "~5.00"}, {"measurement": "pKd", "setting": "full-length galectin-3", "value": "5.15 to 5.30"}, {"measurement": "Effect on Galectin-8 binding to asialofetuin", "setting": "Galectin-8", "value": "does not affect binding"}, {"measurement": "Inhibition of ACA19 cell adhesion to HUVECs", "setting": "[3]", "value": "dose-dependent inhibition"}, {"measurement": "Genotoxicity in yeast", "setting": "yeast", "value": "no detectable genotoxicity"}, {"measurement": "Cytotoxicity to SW620 cells (LDH release)", "setting": "[4]; at 100 μM", "value": "no detectable cytotoxicity"}, {"measurement": "Cytotoxicity to SW620 cells (LDH release)", "setting": "[4]; various concentrations", "value": "low cytotoxicity"}, {"measurement": "Effect on Galectin-4 binding to asialofetuin", "setting": "Galectin-4", "value": "does not affect binding"}]}]}
